Data taken from US10227346B2, “Methyl- and trifluoromethyl-substituted pyrrolopyridine modulators of RORC2 and methods of use therof” (Pfizer Inc., priority 2014, dated 2019).

System: IL-17 production from human Th17 cells;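 also: purified human CD4+ T cells activated with anti-CD3 plus anti-CD28 and a Th17-inducing cytokine cocktail, with compound at serial concentrations versus no compound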
Test: IL-17 production from human Th17 cells;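 also: purified human CD4+ T cells activated with anti-CD3 plus anti-CD28 and a Th17-inducing cytokine cocktail, with compound at serial concentrations versus no compound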
Format: cell-based
Conditions: IL-17A in supernatant by ELISA after 6 days, human CD4+ T cells under Th17 differentiation

IC50 [nM]	Compound
9.9	Cc1ccc(C(=O)Nc2cnc3c(c([C@@H]4CCN(C(=O)C5CCCC5)C(C)(C)C4)cn3C)c2C)cc1C#N [Example 59, (R)-3-cyano-N-(3-(1-(cyclopentanecarbonyl)-2,2-dimethylpiperidin-4-yl)-1,4-dimethyl-1H-pyrrolo[2,3-b]pyridin-5-yl)-4-methylbenzamide]
34.9	Cc1c(NC(=O)c2cccc(C#N)c2)cnc2c1c([C@@H]1CCN(C(=O)C(C)C3CC3)C[C@@H]1C)cn2C (stereo partly drawn) [Example 86, 3-cyano-N-(3-((3R,4R)-1-(2-cyclopropylpropanoyl)-3-methylpiperidin-4-yl)-1,4-dimethyl-1H-pyrrolo[2,3-b]pyridin-5-yl)benzamide]
6.8	Cc1c(NC(=O)c2cccc(C#N)c2)cnc2c1c([C@@H]1CCN(C(=O)CC3CCCCC3)C(C)(C)C1)cn2C [Example 75, (R)-3-cyano-N-(3-(1-(2-cyclohexylacetyl)-2,2-dimethylpiperidin-4-yl)-1,4-dimethyl-1H-pyrrolo[2,3-b]pyridin-5-yl)benzamide]
5	Cc1c(NC(=O)c2cccc(C#N)c2)cnc2c1c([C@@H]1CCN(C(=O)CC3CCC3)C(C)(C)C1)cn2C [Example 76, (R)-3-cyano-N-(3-(1-(2-cyclobutylacetyl)-2,2-dimethylpiperidin-4-yl)-1,4-dimethyl-1H-pyrrolo[2,3-b]pyridin-5-yl)benzamide]
8.9	CC(C)C(=O)N1C[C@H]2CC[C@@H](C1)[C@@H]2c1cn(C)c2ncc(NC(=O)c3cccc(C#N)c3)c(C(F)(F)F)c12 [Example 77, 3-cyano-N-(3-((1R,5S,8r)-3-isobutyryl-3-azabicyclo[3.2.1]octan-8-yl)-1-methyl-4-(trifluoromethyl)-1H-pyrrolo[2,3-b]pyridin-5-yl)benzamide]
124	Cc1c(NC(=O)c2cccc(C#N)c2)cnc2c1c([C@H]1C[C@H](C)N(C(=O)C3CCCC3)C[C@H]1C)cn2C (relative stereo) [Example 97, rel-3-cyano-N-(3-((2S,4S,5S)-1-(cyclopentanecarbonyl)-2,5-dimethylpiperidin-4-yl)-1,4-dimethyl-1H-pyrrolo[2,3-b]pyridin-5-yl)benzamide]
10.7	Cn1cc([C@@H]2CCN(C(=O)C3CCCC3)C(C)(C)C2)c2c(C(F)(F)F)c(NC(=O)c3cccc(C#N)c3)cnc21 [Example 65, (R)-3-cyano-N-(3-(1-(cyclopentanecarbonyl)-2,2-dimethylpiperidin-4-yl)-1-methyl-4-(trifluoromethyl)-1H-pyrrolo[2,3-b]pyridin-5-yl)benzamide]
8.4	Cc1c(NC(=O)c2cccc(C#N)c2)cnc2c1c(C1CCN(C(=O)[C@@H]3CCC[C@H]3C)CC1)cn2C (single isomer, unassigned) [Example 47]
5.7	CC(C)C(=O)N1CC[C@@H](c2cn(C)c3ncc(NC(=O)c4cccc(C#N)c4F)c(C(F)(F)F)c23)[C@@H](C)C1 [Example 82, 3-cyano-2-fluoro-N-(3-((3R,4R)-1-isobutyryl-3-methylpiperidin-4-yl)-1-methyl-4-(trifluoromethyl)-1H-pyrrolo[2,3-b]pyridin-5-yl)benzamide]
8	Cc1c(NC(=O)c2cccc(C#N)c2)cnc2c1c(C1CCN(C(=O)[C@@H]3CCCC3C(C)C)CC1)cn2C (stereo in doubt) [Example 49, 3-cyano-N-(3-(1-((1R,2R)-2-isopropylcyclopentane-1-carbonyl)piperidin-4-yl)-1,4-dimethyl-1H-pyrrolo[2,3-b]pyridin-5-yl)benzamide]
8.5	Cn1cc(C2CCN(C(=O)[C@@H]3CCCS3)CC2)c2c(C(F)(F)F)c(NC(=O)c3cccc(C#N)c3)cnc21 (single isomer, unassigned) [Example 29]
10.7	Cn1cc(C2CCN(C(=O)[C@H]3C[C@H]4CCCC[C@H]4C3)CC2)c2c(C(F)(F)F)c(NC(=O)c3cccc(C#N)c3)cnc21 [Example 16, 3-cyano-N-(1-methyl-3-(1-((2r,3aR,7aS)-octahydro-1H-indene-2-carbonyl)piperidin-4-yl)-4-(trifluoromethyl)-1H-pyrrolo[2,3-b]pyridin-5-yl)benzamide]
